Results taken from the kinase profiling compilation of Christmann-Franck et al. (2016).

Columns and labels:
Test in all cases: radiometric filter-binding kinase assay, Kinase HotSpot
Conditions in all cases: compound 0.5 µM; ATP 10 µM
AXL (human) = AXL (human) (UniProt P30530)
EPHA7 (human) = EPHA7 (human) (UniProt Q15375)
CDK4 CCND3 (human) = CDK4 CCND3 (human) (UniProt P30281+P11802)
CLK2 (human) = CLK2 (human) (UniProt P49760)
LTK (human) = LTK (human) (UniProt P29376)
INSRR (human) = INSRR (human) (UniProt P14616)
CHEK2 (human) = CHEK2 (human) (UniProt O96017)
TGFBR1 (human) = TGFBR1 (human) (UniProt P36897)
STK11 (human) = STK11 (human) (UniProt Q15831)
[1] = test system: PRKCQ (human), Q04759 [P330L]
CHUK (human) = CHUK (human) (UniProt O15111)
MAP3K11 (human) = MAP3K11 (human) (UniProt Q16584)
CDK9 CCNT1 (human) = CDK9 CCNT1 (human) (UniProt P50750+O60563)
TYRO3 (human) = TYRO3 (human) (UniProt Q06418)
PRKX (human) = PRKX (human) (UniProt P51817)
ABL1 (human) = ABL1 (human) (UniProt P00519)
JAK3 JH1 JH2 (human) = JAK3 JH1 JH2 (human) (UniProt P52333)
CAMK4 (human) = CAMK4 (human) (UniProt Q16566)
STK10 (human) = STK10 (human) (UniProt O94804)
CAMK1G (human) = CAMK1G (human) (UniProt Q96NX5)
FLT3 (human) = FLT3 (human) (UniProt P36888)
YES1 (human) = YES1 (human) (UniProt P07947)
PRKCD (human) = PRKCD (human) (UniProt Q05655)
SRPK3 (human) = SRPK3 (human) (UniProt Q9UPE1)
PRKD1 (human) = PRKD1 (human) (UniProt Q15139)
CDK6 CCND1 (human) = CDK6 CCND1 (human) (UniProt Q00534+P24385)
CDC42BPB (human) = CDC42BPB (human) (UniProt Q9Y5S2)
MAPKAPK2 (human) = MAPKAPK2 (human) (UniProt P49137)
TBK1 (human) = TBK1 (human) (UniProt Q9UHD2)
PRKG2 (human) = PRKG2 (human) (UniProt Q13237)
CSNK1G3 (human) = CSNK1G3 (human) (UniProt Q9Y6M4)
MAP2K2 (human) = MAP2K2 (human) (UniProt P36507)
MAP3K3 (human) = MAP3K3 (human) (UniProt Q99759)
HIPK4 (human) = HIPK4 (human) (UniProt Q8NE63)
MAPK9 (human) = MAPK9 (human) (UniProt P45984)
CLK3 (human) = CLK3 (human) (UniProt P49761)
AURKC (human) = AURKC (human) (UniProt Q9UQB9)
EPHA5 (human) = EPHA5 (human) (UniProt P54756)
CSNK1D (human) = CSNK1D (human) (UniProt P48730)
EGFR (human) = EGFR (human) (UniProt P00533)
DSTYK (human) = DSTYK (human) (UniProt Q6XUX3)
PDGFRA (human) = PDGFRA (human) (UniProt P16234)

Sequence of MAPK9 (human) (P45984 whole entry, looked up): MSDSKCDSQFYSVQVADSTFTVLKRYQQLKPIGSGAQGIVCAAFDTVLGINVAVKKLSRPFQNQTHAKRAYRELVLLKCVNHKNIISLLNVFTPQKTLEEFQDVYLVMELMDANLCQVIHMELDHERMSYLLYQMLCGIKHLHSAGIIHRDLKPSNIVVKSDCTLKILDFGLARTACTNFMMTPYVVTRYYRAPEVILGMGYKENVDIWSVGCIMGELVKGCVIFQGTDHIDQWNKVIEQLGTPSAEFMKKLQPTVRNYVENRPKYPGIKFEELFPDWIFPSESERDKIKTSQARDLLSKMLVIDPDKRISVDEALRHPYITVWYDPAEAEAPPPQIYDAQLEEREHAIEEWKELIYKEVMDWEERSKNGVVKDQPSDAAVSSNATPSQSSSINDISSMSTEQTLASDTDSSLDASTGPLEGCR
Sequence of CDC42BPB (human) (Q9Y5S2 whole entry, looked up): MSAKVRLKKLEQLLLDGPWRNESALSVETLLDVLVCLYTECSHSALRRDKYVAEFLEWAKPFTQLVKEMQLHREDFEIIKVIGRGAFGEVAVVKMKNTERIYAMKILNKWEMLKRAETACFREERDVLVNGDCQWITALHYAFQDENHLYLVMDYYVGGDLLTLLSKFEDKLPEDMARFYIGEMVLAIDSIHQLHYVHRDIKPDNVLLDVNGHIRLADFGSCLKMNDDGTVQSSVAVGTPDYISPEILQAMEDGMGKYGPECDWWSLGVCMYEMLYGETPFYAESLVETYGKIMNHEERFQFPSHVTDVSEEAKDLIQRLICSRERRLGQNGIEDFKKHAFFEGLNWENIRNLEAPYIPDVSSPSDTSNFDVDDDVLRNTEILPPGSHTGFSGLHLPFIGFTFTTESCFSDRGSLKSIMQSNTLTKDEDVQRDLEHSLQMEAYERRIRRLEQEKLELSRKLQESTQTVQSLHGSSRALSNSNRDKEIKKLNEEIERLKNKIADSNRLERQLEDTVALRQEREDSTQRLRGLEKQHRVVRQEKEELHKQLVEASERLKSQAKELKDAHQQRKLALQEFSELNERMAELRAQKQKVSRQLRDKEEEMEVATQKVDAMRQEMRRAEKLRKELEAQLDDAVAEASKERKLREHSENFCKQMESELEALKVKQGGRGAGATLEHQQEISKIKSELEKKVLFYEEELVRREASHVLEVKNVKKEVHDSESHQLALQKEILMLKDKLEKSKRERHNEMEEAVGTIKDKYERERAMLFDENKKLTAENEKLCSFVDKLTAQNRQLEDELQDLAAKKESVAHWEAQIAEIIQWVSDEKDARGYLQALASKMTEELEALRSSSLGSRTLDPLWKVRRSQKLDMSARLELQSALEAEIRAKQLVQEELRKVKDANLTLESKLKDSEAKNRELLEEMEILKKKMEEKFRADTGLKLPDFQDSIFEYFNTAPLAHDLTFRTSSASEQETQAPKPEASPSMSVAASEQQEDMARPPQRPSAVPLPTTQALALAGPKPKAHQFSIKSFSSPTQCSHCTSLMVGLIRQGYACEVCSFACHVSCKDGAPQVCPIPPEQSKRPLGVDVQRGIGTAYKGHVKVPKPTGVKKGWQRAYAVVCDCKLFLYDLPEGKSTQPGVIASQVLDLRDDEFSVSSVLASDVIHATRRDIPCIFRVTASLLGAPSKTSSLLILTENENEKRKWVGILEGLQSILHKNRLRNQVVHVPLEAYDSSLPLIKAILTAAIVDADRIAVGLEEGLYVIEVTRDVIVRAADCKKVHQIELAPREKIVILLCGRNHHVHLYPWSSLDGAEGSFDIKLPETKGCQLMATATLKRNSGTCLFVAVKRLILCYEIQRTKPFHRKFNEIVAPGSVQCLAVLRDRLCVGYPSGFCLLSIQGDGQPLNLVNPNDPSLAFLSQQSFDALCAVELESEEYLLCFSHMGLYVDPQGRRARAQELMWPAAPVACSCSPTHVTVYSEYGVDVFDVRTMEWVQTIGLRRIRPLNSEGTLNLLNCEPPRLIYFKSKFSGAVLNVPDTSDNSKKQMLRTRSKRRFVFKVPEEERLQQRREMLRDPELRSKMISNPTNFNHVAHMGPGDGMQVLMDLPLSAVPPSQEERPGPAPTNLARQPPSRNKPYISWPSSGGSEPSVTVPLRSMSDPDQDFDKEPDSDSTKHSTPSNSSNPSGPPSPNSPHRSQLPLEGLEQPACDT
Sequence of AURKC (human) (Q9UQB9 whole entry, looked up): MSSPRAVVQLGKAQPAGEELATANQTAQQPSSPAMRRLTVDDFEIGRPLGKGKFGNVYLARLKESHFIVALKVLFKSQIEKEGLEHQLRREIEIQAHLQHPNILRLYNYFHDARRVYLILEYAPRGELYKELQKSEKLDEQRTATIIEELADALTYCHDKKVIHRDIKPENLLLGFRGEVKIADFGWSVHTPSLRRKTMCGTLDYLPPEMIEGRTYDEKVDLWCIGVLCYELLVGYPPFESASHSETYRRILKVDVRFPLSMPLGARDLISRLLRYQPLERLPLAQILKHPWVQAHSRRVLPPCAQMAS
Sequence of ABL1 (human) (P00519 whole entry, looked up): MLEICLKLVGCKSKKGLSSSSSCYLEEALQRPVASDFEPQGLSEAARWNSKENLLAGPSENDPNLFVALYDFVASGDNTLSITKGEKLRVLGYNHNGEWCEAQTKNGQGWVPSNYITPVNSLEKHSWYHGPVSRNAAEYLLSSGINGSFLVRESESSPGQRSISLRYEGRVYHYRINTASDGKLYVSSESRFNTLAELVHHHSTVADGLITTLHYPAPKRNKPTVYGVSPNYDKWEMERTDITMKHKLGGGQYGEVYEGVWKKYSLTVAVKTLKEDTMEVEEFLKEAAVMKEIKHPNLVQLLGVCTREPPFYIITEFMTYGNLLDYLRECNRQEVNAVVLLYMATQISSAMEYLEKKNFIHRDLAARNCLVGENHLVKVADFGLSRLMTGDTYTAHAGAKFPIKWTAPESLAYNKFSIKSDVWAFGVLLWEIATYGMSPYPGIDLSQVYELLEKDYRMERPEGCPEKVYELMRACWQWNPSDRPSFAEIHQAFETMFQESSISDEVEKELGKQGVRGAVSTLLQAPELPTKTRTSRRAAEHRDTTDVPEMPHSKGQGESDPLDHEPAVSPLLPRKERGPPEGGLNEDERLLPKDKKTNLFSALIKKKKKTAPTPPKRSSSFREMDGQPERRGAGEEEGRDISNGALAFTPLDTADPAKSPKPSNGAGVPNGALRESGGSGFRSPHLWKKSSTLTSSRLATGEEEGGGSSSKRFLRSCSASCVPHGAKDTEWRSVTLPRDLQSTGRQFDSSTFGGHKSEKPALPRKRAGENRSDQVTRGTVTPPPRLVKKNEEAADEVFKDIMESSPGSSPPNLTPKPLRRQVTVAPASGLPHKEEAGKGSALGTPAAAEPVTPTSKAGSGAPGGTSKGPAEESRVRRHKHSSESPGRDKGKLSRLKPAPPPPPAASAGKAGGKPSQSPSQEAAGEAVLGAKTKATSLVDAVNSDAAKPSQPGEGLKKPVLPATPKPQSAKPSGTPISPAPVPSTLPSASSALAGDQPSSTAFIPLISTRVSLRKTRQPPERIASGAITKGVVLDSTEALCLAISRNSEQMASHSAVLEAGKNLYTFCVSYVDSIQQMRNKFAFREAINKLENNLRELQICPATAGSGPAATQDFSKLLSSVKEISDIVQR
Sequence of SRPK3 (human) (Q9UPE1 whole entry, looked up): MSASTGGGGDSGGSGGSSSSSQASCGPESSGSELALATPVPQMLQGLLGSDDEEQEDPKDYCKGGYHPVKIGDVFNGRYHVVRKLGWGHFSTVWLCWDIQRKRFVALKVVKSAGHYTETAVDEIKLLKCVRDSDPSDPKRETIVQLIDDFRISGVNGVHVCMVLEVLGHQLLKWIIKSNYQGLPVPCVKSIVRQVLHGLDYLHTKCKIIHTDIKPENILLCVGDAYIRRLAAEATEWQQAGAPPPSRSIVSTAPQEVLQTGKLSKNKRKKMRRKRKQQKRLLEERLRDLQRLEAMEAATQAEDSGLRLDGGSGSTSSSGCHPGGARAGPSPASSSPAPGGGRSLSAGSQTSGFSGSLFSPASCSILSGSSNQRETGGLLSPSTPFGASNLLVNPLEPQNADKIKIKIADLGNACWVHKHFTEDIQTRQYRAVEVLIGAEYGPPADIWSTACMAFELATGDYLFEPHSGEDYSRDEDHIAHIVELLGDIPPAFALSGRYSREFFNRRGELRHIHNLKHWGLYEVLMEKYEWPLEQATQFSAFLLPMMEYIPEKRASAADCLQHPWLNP
Sequence of TBK1 (human) (Q9UHD2 whole entry, looked up): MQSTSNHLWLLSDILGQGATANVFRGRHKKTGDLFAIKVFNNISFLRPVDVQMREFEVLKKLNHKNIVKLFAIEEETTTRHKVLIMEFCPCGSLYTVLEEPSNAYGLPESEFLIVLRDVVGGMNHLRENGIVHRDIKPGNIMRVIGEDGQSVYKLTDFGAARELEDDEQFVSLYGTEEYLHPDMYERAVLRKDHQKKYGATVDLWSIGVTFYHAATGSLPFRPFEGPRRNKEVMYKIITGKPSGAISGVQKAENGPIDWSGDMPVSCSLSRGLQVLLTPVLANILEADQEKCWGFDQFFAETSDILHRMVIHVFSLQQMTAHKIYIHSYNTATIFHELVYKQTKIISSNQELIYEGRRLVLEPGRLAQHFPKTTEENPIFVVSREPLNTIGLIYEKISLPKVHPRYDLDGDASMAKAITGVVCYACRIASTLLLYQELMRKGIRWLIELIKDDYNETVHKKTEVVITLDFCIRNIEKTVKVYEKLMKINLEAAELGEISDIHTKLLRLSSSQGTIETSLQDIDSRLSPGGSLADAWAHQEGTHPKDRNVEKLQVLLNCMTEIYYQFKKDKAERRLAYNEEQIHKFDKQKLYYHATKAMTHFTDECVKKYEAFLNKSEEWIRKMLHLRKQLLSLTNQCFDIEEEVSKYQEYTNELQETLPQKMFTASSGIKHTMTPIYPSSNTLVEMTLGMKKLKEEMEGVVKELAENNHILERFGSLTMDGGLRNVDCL

## Cc1nc(-c2ccccc2)c(-c2ccncc2)o1
AXL (human)
  residual activity: 91.1%
EPHA7 (human)
  residual activity: 91.5%
CDK4 CCND3 (human)
  residual activity: 107%
CLK2 (human)
  residual activity: 98.2%
LTK (human)
  residual activity: 107%
INSRR (human)
  residual activity: 101%
CHEK2 (human)
  residual activity: 96.6%
TGFBR1 (human)
  residual activity: 102%
STK11 (human)
  residual activity: 98.4%
[1]
  residual activity: 120%
CHUK (human)
  residual activity: 105%
MAP3K11 (human)
  residual activity: 98.7%
CDK9 CCNT1 (human)
  residual activity: 84.6%
TYRO3 (human)
  residual activity: 109%
PRKX (human)
  residual activity: 101%
ABL1 (human)
  residual activity: 100%
JAK3 JH1 JH2 (human)
  residual activity: 90.7%
CAMK4 (human)
  residual activity: 97.2%
STK10 (human)
  residual activity: 96.9%
CAMK1G (human)
  residual activity: 92.8%
FLT3 (human)
  residual activity: 95.2%
YES1 (human)
  residual activity: 101%
PRKCD (human)
  residual activity: 96.2%
SRPK3 (human)
  residual activity: 103%
PRKD1 (human)
  residual activity: 95.6%
CDK6 CCND1 (human)
  residual activity: 101%
CDC42BPB (human)
  residual activity: 101%
MAPKAPK2 (human)
  residual activity: 101%
TBK1 (human)
  residual activity: 88%
PRKG2 (human)
  residual activity: 85%
CSNK1G3 (human)
  residual activity: 104%
MAP2K2 (human)
  residual activity: 106%
MAP3K3 (human)
  residual activity: 101%
HIPK4 (human)
  residual activity: 102%
MAPK9 (human)
  residual activity: 98.2%
CLK3 (human)
  residual activity: 90.6%
AURKC (human)
  residual activity: 95.7%
EPHA5 (human)
  residual activity: 91.4%
CSNK1D (human)
  residual activity: 44%
EGFR (human)
  residual activity: 89.4%
DSTYK (human)
  residual activity: 91%
PDGFRA (human)
  residual activity: 96.3%

## CCCCc1c(-c2ccc(OC)cc2)[nH]c2nccnc12
AXL (human)
  residual activity: 110%
EPHA7 (human)
  residual activity: 98%
CDK4 CCND3 (human)
  residual activity: 69.7%
CLK2 (human)
  residual activity: 85.3%
LTK (human)
  residual activity: 83.9%
INSRR (human)
  residual activity: 83.2%
CHEK2 (human)
  residual activity: 72.8%
TGFBR1 (human)
  residual activity: 95%
STK11 (human)
  residual activity: 74.5%
[1]
  residual activity: 107%
CHUK (human)
  residual activity: 97.3%
MAP3K11 (human)
  residual activity: 39.4%
CDK9 CCNT1 (human)
  residual activity: 55.2%
TYRO3 (human)
  residual activity: 98.6%
PRKX (human)
  residual activity: 102%
ABL1 (human)
  residual activity: 83.4%
JAK3 JH1 JH2 (human)
  residual activity: 92.8%
CAMK4 (human)
  residual activity: 97.6%
STK10 (human)
  residual activity: 95.4%
CAMK1G (human)
  residual activity: 102%
FLT3 (human)
  residual activity: 47.8%
YES1 (human)
  residual activity: 45.7%
PRKCD (human)
  residual activity: 92.8%
SRPK3 (human)
  residual activity: 97.9%
PRKD1 (human)
  residual activity: 92.9%
CDK6 CCND1 (human)
  residual activity: 54.8%
CDC42BPB (human)
  residual activity: 92.5%
MAPKAPK2 (human)
  residual activity: 90.2%
TBK1 (human)
  residual activity: 81.4%
PRKG2 (human)
  residual activity: 93.9%
CSNK1G3 (human)
  residual activity: 89.2%
MAP2K2 (human)
  residual activity: 79.4%
MAP3K3 (human)
  residual activity: 99.8%
HIPK4 (human)
  residual activity: 119%
MAPK9 (human)
  residual activity: 84.8%
CLK3 (human)
  residual activity: 116%
AURKC (human)
  residual activity: 55.8%
EPHA5 (human)
  residual activity: 91.6%
CSNK1D (human)
  residual activity: 94.7%
EGFR (human)
  residual activity: 103%
DSTYK (human)
  residual activity: 97.6%
PDGFRA (human)
  residual activity: 90.3%

## CN(C)S(=O)(=O)c1ccc2c(c1)/C(=C/c1cc3c([nH]1)CCCC3)C(=O)N2
AXL (human)
  residual activity: 39.7%
EPHA7 (human)
  residual activity: 91.1%
CDK4 CCND3 (human)
  residual activity: 99.1%
CLK2 (human)
  residual activity: 32.1%
LTK (human)
  residual activity: 52.7%
INSRR (human)
  residual activity: 93.3%
CHEK2 (human)
  residual activity: 46.1%
TGFBR1 (human)
  residual activity: 95.9%
STK11 (human)
  residual activity: 90.4%
[1]
  residual activity: 112%
CHUK (human)
  residual activity: 115%
MAP3K11 (human)
  residual activity: 57.4%
CDK9 CCNT1 (human)
  residual activity: 95.9%
TYRO3 (human)
  residual activity: 57.2%
PRKX (human)
  residual activity: 98.1%
ABL1 (human)
  residual activity: 57.3%
JAK3 JH1 JH2 (human)
  residual activity: 64.8%
CAMK4 (human)
  residual activity: 96.6%
STK10 (human)
  residual activity: 9.53%
CAMK1G (human)
  residual activity: 97.1%
FLT3 (human)
  residual activity: 10.2%
YES1 (human)
  residual activity: 13.5%
PRKCD (human)
  residual activity: 95.5%
SRPK3 (human)
  residual activity: 67.2%
PRKD1 (human)
  residual activity: 102%
CDK6 CCND1 (human)
  residual activity: 92.5%
CDC42BPB (human)
  residual activity: 101%
MAPKAPK2 (human)
  residual activity: 101%
TBK1 (human)
  residual activity: 80.6%
PRKG2 (human)
  residual activity: 95.9%
CSNK1G3 (human)
  residual activity: 101%
MAP2K2 (human)
  residual activity: 104%
MAP3K3 (human)
  residual activity: 48.7%
HIPK4 (human)
  residual activity: 98.8%
MAPK9 (human)
  residual activity: 104%
CLK3 (human)
  residual activity: 92.9%
AURKC (human)
  residual activity: 33.8%
EPHA5 (human)
  residual activity: 85.1%
CSNK1D (human)
  residual activity: 99.7%
EGFR (human)
  residual activity: 93.4%
DSTYK (human)
  residual activity: 96%
PDGFRA (human)
  residual activity: 93.7%
